Tested on: apple polyphenol oxidase
Test: Polyphenol oxidase assay, color formation from catechol at 420 nm
Assay type: biochemical, Red Delicious apples
Conditions: for Average % Inhibition of apple PPO: average ± standard deviation, n = 6; for apple PPO activity: n=3, control 0.24±0.02
Description: Acetone powder containing apple polyphenol oxidase was prepared from Red Delicious apples. Cored and peeled apple pieces (200 g) were homogenized in a precooled blender along with 400 mL cold acetone (−20° C.) for 1 min and then filtered through Whatman No. 1 filter paper. The residue was extracted 3 times with 200 mL cold acetone and the resulting white powder was dried at room temperature, vacuum sealed in commercial plastic bags, and stored at −20° C. until needed. Crude PPO enzyme from the acetone powder was reconstituted in 0.1 M KH2PO4/Na2HPO4, pH 7.2 Containing 1% Triton X-100 (Bio-Rad Laboratories, Hercules, Calif.) using modified procedures of Murata et al. “Relationship between apple ripening and browning—changes in polyphenol content and polyphenol oxidase”, Journal of Agricultural and Food Chemistry 1995, 43 (5), 1115-21 and Yemenicioglu et al. “Heat inactivation kinetics of apple polyphenoloxidase and activation of its latent form”, Journal of Food Science 1997, 62 (3): 508-10. Acetone powder (1 g) was added to 50 mL of refrigerated 0.1 M KH2PO4/Na2HPO4, pH 7.2 buffer containing 1% TritonX-100 (Bio-Rad Laboratories, Hercules, Calif.) and the mixture was stirred for 20 min at 4° C. The suspension was centrifuged at 1200×g for 30 min, then filtered through glass wool and stored at −20° C. where it remained stable for at least 1 month.
A standard reaction mixture for evaluation of browning inhibition where the hypotaurine comprising solution was a mussel extract, consisted of 2.45 mL of 0.1 sodium acetate/acetic acid buffer, pH 5.5, 0.2 ml mussel extract (or additional pH 5.5 buffer for a control run for comparison), 0.3 mL of 0.5 M catechol (Sigma, St. Louis, Mo.) and 0.05 mL of enzyme extract. The percent inhibition was calculated with the following formula: I=100*(A-B)/A, where A and B are the greatest initial linear rate of the control and the test system respectively.
Polyphenol oxidase activity was measured by monitoring the increase in color (absorbance at 420 nm) in a reaction mixture with catechol as a substrate. […] From the data in FIG. 1, the inhibition of polyphenol oxidase by 90 ppm of hypotaurine was calculated to be 97 percent with a 30 fold decrease in the rate of browning. The mussel extract was employed in a similar manner and inhibition was calculated to be 93 percent with a 14 fold decrease in the rate of browning. […]

[1] = 90 ppm of hypotaurine, catechol substrate, FIG. 1

Row | Structure (SMILES) | Average % Inhibition of apple PPO (67.5 μM) [%] | Average % Inhibition of apple PPO (250 μM) [%] | Average % Inhibition of apple PPO (500 μM) [%] | Average % Inhibition of apple PPO (500 μM, listed as hypotaurine) [%] | fold decrease in the rate of browning [1] [fold] | inhibition of polyphenol oxidase [1] [%] | Average % Inhibition of apple PPO (500 μM, listed as methane sulfinic acid) [%] | apple PPO activity (67.5 μM) | apple PPO activity (250 μM) | apple PPO activity (500 μM) | inhibition of apple PPO (in words) (67.5 to 500 μM)
1 | O=S(O)c1ccccc1 [Benzene Sulfinic Acid, benzene sulfinic acid] | 20.9 ± 16.15 | 98.5 ± 1.28 | 100 | – | – | – | – | – | – | – | –
2 | NCCS(=O)O [Hypotaurine, 2-aminoethane sulfinic acid] | 39.1 ± 4.48 | 80.0 ± 14.90 | 89.8 ± 7.65 | 89 | 30 | 97 | – | – | – | – | –
3 | CS(=O)O [Methane Sulfinic Acid, methane sulfinic acid] | 33.7 ± 0.69 | 96.8 ± 0.69 | 99.8 ± 0.11 | – | – | – | 100 | – | – | – | –
4 | NCCS(=O)(=O)O [Taurine, reference compound] | – | – | – | – | – | – | – | 0.23±0.04 ΔA420 nm/min | 0.25±0.01 ΔA420 nm/min | 0.23±0.01 ΔA420 nm/min | did not inhibit
